# According to patent publication US11883491B2, “Compositions and methods for prevention and treatment of hearing loss” (ST. JUDE CHILDREN'S RESEARCH HOSPITAL, priority 2017, dated 2024):
# Experiments:
# FVB mice [1] = assay: Auditory brainstem response thresholds after transtympanic injection in adult mice; format: in vivo, mouse; conditions: adult (>P21) FVB mice, 10 μg transtympanic (TT) injection, 7 days after
# Method: (§1) To further evaluate the use of an inhibitor of EGFR signaling in HC regeneration, the toxicity of AG1478 in neonatal and adult mice was assessed.
# [2] = tested on: neonatal mouse cochlear explants; assay: Inhibitor alone: proliferation and differentiation of endogenous SCs and HCs in neonatal cochlear explants; format: cell-based; conditions: inhibitor by itself, after 7 days
# Description: Atoh1, a transcription factor, can convert non-sensory supporting cells (SCs) to hair cells (HCs) in neonatal and juvenile mammalian cochleae (Izumikawa, et al. (2005) Nature Med. 11:271-6; Kelly, et al. (2012) J. Neurosci. 32:6699-710; Liu, et al. (2012) J. Neurosci. 32:6600-10). Ectopic expression of Atoh1 has been approved for clinical trials as a gene therapy. However, Atoh1-induced HC conversion is inefficient (<17%), incomplete (lacking mature HC markers), and age-dependent (no response in adult cochlea) (Izumikawa, et al. (2008) Hearing Res. 240:52-6; Liu, et al. (2012) J. Neurosci. 32:6600-10). Using RNA-seq analysis to compare the transcriptome of SCs, endogenous outer HCs (OHCS), and Atoh1-induced HCs (cHCs) in adult mouse cochleae, it was observed that the epidermal growth factor receptor (EGFR) signaling is enriched in SCs and cHCs using gene set enrichment analysis (GSEA). To validate the role of EGFR pathway ex vivo, neonatal mouse cochlear explants were treated with a potent EGFR inhibitor (AG1478). […] In addition, inhibitors targeting proteins downstream of EGFR signaling were tested including WP1066 (STAT3 inhibitor), LY 294002 (PI3K inhibitor), U0126 (MEK inhibitor), and U73122 (PLC inhibitor) at various doses above their respective EC50 values. […]
# FVB mice [3] = assay: Toxicity (median lethal dose) in neonatal mice; format: in vivo, mouse; conditions: postnatal day 1 (P1) FVB mice, intraperitoneal (IP) injection; estimated
# Method: as §1
# [4] = tested on: neonatal mouse cochlear explants; assay: Atoh1-induced hair cell conversion in Atoh1-transfected neonatal mouse cochlear explants; format: cell-based
# Method: Representative images show the immunostaining of cochlear explants transfected with Atoh1-IRES-GFP and treated with vehicle (FIGS. 1A and 1C) or 100 nM AG1478 (FIGS. 1B and 1D). Expression of hair cell marker Myo6 (↑) and Atoh1-transfected cells (GFP, ? ) are shown.
# Atoh1 is transfected (O/E) in all conditions.
# mouse cochlear explants [5] = conditions: for protection against cisplatin-induced hair cell loss: cochlear explants, screen of 75 kinase inhibitors
# Method: (§2) A screen of a library composed of 75 kinase inhibitors was conducted to identify inhibitors that protect against cisplatin-induced hair cell loss.
# HEI-OC1 cells [6] = assay: Protection against cisplatin-induced Caspase-3/7 activity / cell death in HEI-OC1 cells; format: cell-based, mouse; conditions: for protection against cisplatin-induced cell death: HEI-OC1, screen of 75 kinase inhibitors; for IC50: Mus musculus, HEI-OC1 cells
# Method: as §2
# HEI-OC1 cells [7] = conditions: CELLTITER-GLO
# Method: as §2
# mouse cochlear explants [8] = assay: tissue or blood; conditions: read-out: IC50, protection against cisplatin-induced hair cell loss
# Method: as §2
structure (smiles),measurement,setting,value
"COc1cc2ncnc(Nc3cccc(Cl)c3)c2cc1OC [AG1478, AG 1478]",changes in auditory brainstem response (ABR) thresholds,FVB mice [1],no significant changes
same,impact on the proliferation and differentiation of endogenous SCs and HCs,[2],no impact
same,median lethal dose (LD50),FVB mice [3],30 mg/kg
same,Atoh1-induced hair cell conversion (immunostaining Myo6/GFP),"[4]; 100 nM AG1478 vs vehicle, Atoh1-IRES-GFP transfected explants",increased
same,Atoh1-induced HC conversion from explant SCs,"[4]; AG1478 combined with Atoh1, from 24.7% without inhibitor, FIGS. 1A-1D",80.6%
"CC1(COc2ccc3c(c2)ncn3-c2ccc3cccc(N4CCC(N)CC4)c3n2)COC1 [CRENOLANIB, Crenolanib]",protection against cisplatin-induced hair cell loss,mouse cochlear explants [5],potently protected
same,protection against cisplatin-induced cell death,HEI-OC1 cells [6],potently protected
"CC(C)(C)c1nc(-c2cccc(NS(=O)(=O)c3c(F)cccc3F)c2F)c(-c2ccnc(N)n2)s1 [GSK2118436A, dabrafenib]",protection against cisplatin-induced hair cell loss,mouse cochlear explants [5],potently protected
same,protection against cisplatin-induced cell death,HEI-OC1 cells [6],potently protected
"FC(F)(F)c1ccc(/C=C/c2nc(COc3ccc(CCCCn4ccnn4)cc3)co2)cc1 [MUBRITINIB, Mubritinib]",LD50,HEI-OC1 cells [7],> 55 µM
same,IC50,mouse cochlear explants [8],2.5 nM
same,protection against cisplatin-induced hair cell loss,mouse cochlear explants [5],potently protected
same,LD50,mouse cochlear explants [5]; mouse cochlear explants,> 500 nM
same,Therapeutic Index,"mouse cochlear explants [5]; mouse cochlear explants, LD50/IC50",> 200
same,protection against cisplatin-induced cell death,HEI-OC1 cells [6],potently protected
same,IC50,HEI-OC1 cells [6],4 nM
"CCOc1cc2ncc(C#N)c(Nc3ccc(F)c(Cl)c3)c2cc1NC(=O)/C=C/CN(C)C [PELITINIB, Pelitinib]",protection of outer hair cells against cisplatin-induced hair cell loss,"mouse cochlear explants [5]; 1 hour pre-incubation, N=3",49%
same,IC50,HEI-OC1 cells [6]; cisplatin-Glo 3/7,600 nM
O=C(Nc1cccc(Cl)c1)Nc1ncc(CCNc2ncnc3ccsc23)s1 [SNS314],protection against cisplatin-induced hair cell loss,mouse cochlear explants [5],potently protected
same,protection against cisplatin-induced cell death,HEI-OC1 cells [6],potently protected
